Measurements as given in patent publication US7750017B2, “Heterocycles” (Bayer Schering Pharma Aktiengesellschaft, priority 2004, dated 2010).
Counter-ions that a name gives are not always drawn.

Assays:
[1] = test system: BT474 [human breast carcinoma, overexpressing HER2 (ErbB2)]; assay: In vitro tumor cell proliferation assay (Cell Titer-Glo luminescent cell viability), BT474 cells; format: cell-based; conditions: BT-474, 72 h, 72 hours of drug exposure, Cell Titer-Glo readout, read-out: IC50, anti-proliferative activity in BT474 cells
[2] = test system: A431 cells [human epidermoid carcinoma, overexpressing HER1 (EGFR, ErbB1)]; assay: In vitro tumor cell proliferation assay (Cell Titer-Glo luminescent cell viability), A431 cells; format: cell-based; conditions: A-431, 72 h, 72 hours of drug exposure, Cell Titer-Glo readout, read-out: IC50, anti-proliferative activity in A431 cells

| Compound | IC50 [1] [µM] | IC50 [2] [µM] |
| --- | --- | --- |
| OC[C@@H](O)c1ccc2c(c1)sc1ncnc(Nc3ccc4c(cnn4Cc4cccc(F)c4)c3)c12 [Example 116, (1S)-1-(4-{[1-(3-fluorobenzyl)-1H-indazol-5-yl]amino}[1]benzothieno [2,3-d]pyrimidin-7-yl)ethane-1,2-diol] | ≤ 0.5 | ≤ 5 |
| OCC(O)c1ccc2c(c1)sc1ncnc(Nc3ccc4c(cnn4Cc4cccc(F)c4)c3)c12 (centres unmarked) [Example 115, 1-(4-{[1-(3-fluorobenzyl)-1H-indazol-5-yl]amino}[1]benzothieno [2,3-d]pyrimidin-7-yl)ethane-1,2-diol] | ≤ 0.5 | ≤ 5 |
| CN(C)[C@H]1CCN(C(=O)Cc2ccc3c(c2)sc2ncnc(Nc4ccc5c(cnn5Cc5cccc(F)c5)c4)c23)C1 [Example 125, 7-{2-[3-(dimethylamino)pyrrolidin-1-yl]-2-oxoethyl}-N-[1-(3-fluorobenzyl)-1H-indazol-5-yl] [1]benzothieno[2,3-d]pyrimidin-4-amine] | ≤ 0.5 | ≤ 5 |
| CCOC(=O)C(C(=O)OCC)c1ccc2c(c1)sc1ncnc(Nc3ccc4c(cnn4Cc4cccc(F)c4)c3)c12 [Example 118, diethyl (4-{[1-(3-fluorobenzyl)-1H-indazol-5-yl]amino}[1]benzothieno [2,3-d]pyrimidin-7-yl)malonate] | ≤ 5 | ≤ 50 |
| CCN1CCN(C(=O)[C@@H](O)[C@H](O)c2ccc3c(c2)sc2ncnc(Nc4ccc(OCc5cccc(F)c5)c(Cl)c4)c23)CC1 [Example 58, (1R,2S)-1-[4-({3-chloro-4-[(3-fluorobenzyl)oxy]phenyl}amino)[1]benzothieno[2,3-d]pyrimidin-7-yl]-3-(4-ethylpiperazin-1-yl)-3-oxopropane-1,2-diol] | ≤ 5 | ≤ 50 |
| O=S1(=O)CCN(CCc2ccc3c(c2)sc2ncnc(Nc4ccc(OCc5cccc(F)c5)c(Cl)c4)c23)CC1 [Example 18, N-{3-chloro-4-[(3-fluorobenzyl)oxy]phenyl}-7-[2-(1,1-dioxidothiomorpholin-4-yl)ethyl][1]benzothieno[2,3-d] pyrimidin-4-amine] | ≤ 0.5 | ≤ 50 |
| Fc1cccc(COc2ccc(Nc3ncnc4sc5cc(CCNCCN6CCOCC6)ccc5c34)cc2Cl)c1 [Example 16, N-{3-chloro-4-[(3-fluorobenzyl)oxy]phenyl}-7-{2-[(2-morpholin-4-ylethyl)amino]ethyl}[1] benzothieno[2,3-d]pyrimidin-4-amine] | ≤ 0.5 | ≤ 50 |
| CCOC(=O)C(C(=O)OCC)c1ccc2c(c1)sc1ncnc(Nc3ccc(OCc4cccc(F)c4)c(Cl)c3)c12 [Example 45, 2-{4-[3-Chloro-4-(3-fluoro-benzyloxy)-phenylamino]-benzo[4,5]thieno[2,3-d]pyrimidin-7-yl}-malonic acid diethyl ester] | ≤ 5 | ≤ 50 |
| CS(=O)(=O)CCNC(=O)CCc1ccc2c(c1)sc1ncnc(Nc3ccc(OCc4cccc(F)c4)c(Cl)c3)c12 [Example 69, 3-[4-({3-chloro-4-[(3-fluorobenzyl)oxy]phenyl}amino)[1]benzothieno[2,3-d]pyrimidin-7-yl]-N-[2-(methylsulfonyl)ethyl] propanamide] | ≤ 0.5 | ≤ 5 |
| O=C(O)Cc1ccc2c(c1)sc1ncnc(Nc3ccc(OCc4cscn4)c(Cl)c3)c12 [Example 135, (4-{[3-chloro-4-(1,3-thiazol-4-ylmethoxy)phenyl]amino}[1]benzothieno[2,3-d]pyrimidin-7-yl) acetic acid] | ≤ 5 | ≤ 50 |
| [O-][S+]1CCN(CCc2ccc3c(c2)sc2ncnc(Nc4ccc(OCc5cccc(F)c5)c(Cl)c4)c23)CC1 [Example 19, N-{3-chloro-4-[(3-fluorobenzyl)oxy]phenyl}-7-[2-(1-oxidothiomorpholin-4-yl)ethyl][1] benzothieno[2,3-d]pyrimidin-4-amine] | ≤ 5 | ≤ 50 |
| Clc1cc(Nc2ncnc3sc4cc(NCCN5CCOCC5)ccc4c23)ccc1OCc1ccccn1 [Example 78, N4-[3-chloro-4-(pyridin-2-ylmethoxy)phenyl]-N7-(2-morpholin-4-ylethyl)[1] benzothieno[2,3-d]pyrimidine-4,7-diamine trifluoroacetate] | ≤ 5 | ≤ 50 |
| CCOC(=O)Cc1ccc2c(c1)sc1ncnc(Nc3ccc(OCc4cccc(F)c4)c(Cl)c3)c12 [Example 1, ethyl[4-({3-chloro-4-[(3-fluorobenzyl)oxy]phenyl}amino)[1]benzothieno[2,3-d]pyrimidin-7-yl]acetate] | ≤ 5 | ≤ 50 |
| O=C(Cc1ccc2c(c1)sc1ncnc(Nc3ccc4c(cnn4Cc4cccc(F)c4)c3)c12)NC1CN2CCC1CC2 (centres unmarked) [Example 123, N-1-azabicyclo[2.2.2]oct-3-yl-2-(4-{[1-(3-fluorobenzyl)-1H-indazol-5-yl]amino}[1]benzothieno [2,3-d]pyrimidin-7-yl)acetamide] | ≤ 0.5 | ≤ 5 |
| COCCNC(=O)/C=C/c1ccc2c(c1)sc1ncnc(Nc3ccc(OCc4cccc(F)c4)c(Cl)c3)c12 [Example 50, (2E)-3-[4-({3-chloro-4-[(3-fluorobenzyl)oxy]phenyl}amino) [1]benzothieno[2,3-d]pyrimidin-7-yl]-N-(2-methoxyethyl)acrylamide] | ≤ 0.5 | ≤ 50 |
| CN(C)[C@H]1CCN(CCc2ccc3c(c2)sc2ncnc(Nc4ccc(OCc5cccc(F)c5)c(Cl)c4)c23)C1 [Example 24, N-{3-chloro-4-[(3-fluorobenzyl)oxy]phenyl}-7-{2-[3-(dimethylamino)pyrrolidin-1-yl]ethyl}[1]benzothieno[2,3-d] pyrimidin-4-amine] | ≤ 5 | ≤ 5 |
| OCCc1ccc2c(c1)sc1ncnc(Nc3ccc4c(cnn4Cc4ccccn4)c3)c12 [Example 132, 2-(4-{[1-(pyridin-2-ylmethyl)-1H-indazol-5-yl]amino}[1]benzothieno [2,3-d]pyrimidin-7-yl)ethanol] | ≤ 0.5 | ≤ 5 |
| O=C(Cc1ccc2c(c1)sc1ncnc(Nc3ccc(OCc4ccccn4)c(Cl)c3)c12)N(CCO)CCO [Example 105, 2(4-{[3-chloro-4-(pyridin-2-ylmethoxy)phenyl]amino}[1]benzothieno[2,3-d]pyrimidin-7-yl)-N,N-bis-(2-hydroxyethyl) acetamide] | ≤ 5 | ≤ 50 |
| OCC(O)c1ccc2c(c1)sc1ncnc(Nc3ccc(OCc4cccc(F)c4)c(Cl)c3)c12 (racemic) [Example 25, 1-[4-({3-chloro-4-[(3-fluorobenzyl)oxy]phenyl}amino) [1]benzothieno[2,3-d]pyrimidin-7-yl]ethane-1,2-diol] | ≤ 0.5 | ≤ 5 |
| Fc1cccc(COc2ccc(Nc3ncnc4sc5cc(OCCn6cccc6)ccc5c34)cc2Cl)c1 [Example 40, N-{3-chloro-4-[(3-fluorobenzyl)oxy]phenyl}-7-[2-(1H-pyrrol-1-yl)ethoxy][1] benzothieno[2,3-d]pyrimidin-4-amine] | ≤ 5 | ≤ 50 |
| Fc1cccc(Cn2ncc3cc(Nc4ncnc5sc6cc(Br)ccc6c45)ccc32)c1 [Example 113, 7-bromo-N-[1-(3-fluorobenzyl)-1H-indazol-5-yl][1]benzothieno [2,3-d]pyrimidin-4-amine] | ≤ 5 | ≤ 50 |
| O=C(Cc1ccc2c(c1)sc1ncnc(Nc3ccc(OCc4cccc(F)c4)c(Cl)c3)c12)N1CCOCC1 [Example 28, 2-{4-[3-Chloro-4-(3-fluoro-benzyloxy)-phenylamino]-benzo[4,5]thieno[2,3-]pyrimidin-7-yl}-1-morpholin-4-yl-ethanone] | ≤ 0.5 | ≤ 5 |
| Clc1cc(Nc2ncnc3sc4cc(CCN5CCCC5)ccc4c23)ccc1OCc1ccccn1 [Example 87, N-[3-chloro-4-(pyridin-2-ylmethoxy)phenyl]-7-(2-pyrrolidin-1-ylethyl)[1]benzothieno[2,3-d] pyrimidin-4-amine trifluoroacetate] | ≤ 5 | ≤ 50 |
| COC[C@H]1CCCN1CCc1ccc2c(c1)sc1ncnc(Nc3ccc(OCc4cccc(F)c4)c(Cl)c3)c12 [Example 5, N-{3-chloro-4-[(3-fluorobenzyl)oxy]phenyl}-7-{2-[2-(methoxymethyl)pyrrolidin-1-yl]ethyl}[1]benzothieno[2,3-d] pyrimidin-4-amine] | ≤ 0.5 | ≤ 5 |
| COC(=O)/C=C/c1ccc2c(c1)sc1ncnc(Nc3ccc(OCc4cccc(F)c4)c(Cl)c3)c12 [Example 47, methyl (2E)-3-[4-({3-chloro-4-[(3-fluorobenzyl)oxy]phenyl}amino)[1]benzothieno[2,3-d]pyrimidin-7-yl]acrylate] | ≤ 5 | ≤ 5 |
| CN(C)[C@H]1CCN(C(=O)/C=C/c2ccc3c(c2)sc2ncnc(Nc4ccc(OCc5cccc(F)c5)c(Cl)c4)c23)C1 [Example 52, N-{3-chloro-4-[(3-fluorobenzyl)oxy]phenyl}-7-{(1E)-3-[(3S)-3-(dimethylamino)pyrrolidin-1-yl]-3-oxoprop-1-en-1-yl}[1]benzothieno[2,3-d] pyrimidin-4-amine] | ≤ 5 | ≤ 5 |
| CN1CCN(C(=O)CCc2ccc3c(c2)sc2ncnc(Nc4ccc(OCc5cccc(F)c5)c(Cl)c4)c23)CC1 [Example 66, N-{3-chloro-4-[(3-fluorobenzyl)oxy]phenyl}-7-[3-(4-methylpiperazin-1-yl)-3-oxopropyl][1]benzothieno[2,3-d]pyrimidin-4-amine] | ≤ 5 | ≤ 50 |
| OC[C@H](O)COc1ccc2c(c1)sc1ncnc(Nc3ccc(OCc4ccccn4)c(Cl)c3)c12 [Example 112, (2S)-3-[(4-{[3-chloro-4-(pyridin-2-ylmethoxy)phenyl]amino}[1]benzothieno[2,3-d]pyrimidin-7-yl)oxy]propane-1,2-diol] | ≤ 0.5 | ≤ 5 |
